From patent US12492173B2, “Herbicidal substituted N-tetrazolyl aryl carboxamides” (Bayer Aktiengesellschaft, priority 2019, dated 2025)

Each molecule was assayed on Stellaria media (assay: Pre-emergence herbicidal action, STEME). Conditions: dosage 320 g/ha, scored visually after 3 weeks vs untreated controls (100% = plants have died).
Assay type: in vivo
Method in brief: (§1)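 Application took place on the soil surface immediately after sowing into sandy loam, using aqueous WP or EC preparations with 0.2% wetting agent. Visual percent scoring followed 3 weeks later, untreated pots serving as reference.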

SMILES | herbicidal activity STEME [%]
CCn1nnnc1NC(=O)c1ccc(C(F)(F)F)c(CSCCOC)c1Cl [Example 2-305] | 100
CCCn1nnnc1NC(=O)c1ccc(C(F)(F)F)c(CSCC2CC2)c1Cl [Example 3-314] | 100
Cn1nnnc1NC(=O)c1ccc(C(F)(F)F)c(CS(=O)(=O)C2CC2)c1Cl [Example 1-304] | 100

These molecules were tested on Abutilon theophrasti (assay: Pre-emergence herbicidal action, ABUTH). Conditions: dosage 320 g/ha, scored visually after 3 weeks vs untreated controls (100% = plants have died).
Assay type: in vivo
Method in brief: as §1

SMILES | herbicidal activity ABUTH [%]
CCn1nnnc1NC(=O)c1ccc(C(F)(F)F)c(CSCCOC)c1Cl [Example 2-305] | 100
CCCn1nnnc1NC(=O)c1ccc(C(F)(F)F)c(CSCC2CC2)c1Cl [Example 3-314] | 100
Cn1nnnc1NC(=O)c1ccc(C(F)(F)F)c(CS(=O)(=O)C2CC2)c1Cl [Example 1-304] | 100

Each molecule was assayed on Hordeum murinum (assay: Pre-emergence herbicidal action, HORMU). Conditions: dosage 320 g/ha, scored visually after 3 weeks vs untreated controls (100% = plants have died).
Assay type: in vivo
Method in brief: as §1

SMILES | herbicidal activity HORMU [%]
CCn1nnnc1NC(=O)c1ccc(C(F)(F)F)c(CSCCOC)c1Cl [Example 2-305] | 100
CCCn1nnnc1NC(=O)c1ccc(C(F)(F)F)c(CSCC2CC2)c1Cl [Example 3-314] | 90
Cn1nnnc1NC(=O)c1ccc(C(F)(F)F)c(CS(=O)(=O)C2CC2)c1Cl [Example 1-304] | 100

These molecules were tested on Veronica persica (assay: Post-emergence herbicidal action, VERPE). Conditions: post-emergence, dosage 80 g/ha.
Assay type: in vivo
Parameters: key: % herbicidal action vs untreated; 100 = plants died, 0 = like control
Method in brief: (§2)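 Percent herbicidal effect was judged by eye against untreated controls around 3 weeks after foliar treatment, where 100% meant dead plants. Spraying took place at the one-leaf stage using wettable powder or emulsion concentrate diluted in water (600 to 800 l/ha) with added wetting agent at 0.2%.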

SMILES | herbicidal action VERPE [%]
CCn1nnnc1NC(=O)c1ccc(C(F)(F)F)c(CSCCOC)c1Cl [Example 2-305] | 100
CCCn1nnnc1NC(=O)c1ccc(C(F)(F)F)c(CSCC2CC2)c1Cl [Example 3-314] | 100
Cn1nnnc1NC(=O)c1ccc(C(F)(F)F)c(CS(=O)(=O)C2CC2)c1Cl [Example 1-304] | 100

Each molecule was assayed on Cyperus esculentus (assay: Post-emergence herbicidal action, CYPES). Conditions: post-emergence, dosage 80 g/ha.
Assay type: in vivo
Parameters: key: % herbicidal action vs untreated; 100 = plants died, 0 = like control
Method in brief: as §2

SMILES | herbicidal action CYPES [%]
CCn1nnnc1NC(=O)c1ccc(C(F)(F)F)c(CSCCOC)c1Cl [Example 2-305] | 100
CCCn1nnnc1NC(=O)c1ccc(C(F)(F)F)c(CSCC2CC2)c1Cl [Example 3-314] | 80
Cn1nnnc1NC(=O)c1ccc(C(F)(F)F)c(CS(=O)(=O)C2CC2)c1Cl [Example 1-304] | 90

What follows are molecules tested on Lolium rigidum (assay: Pre-emergence herbicidal action, LOLRI). Conditions: dosage 320 g/ha, scored visually after 3 weeks vs untreated controls (100% = plants have died).
Assay type: in vivo
Text: 1. Pre-Emergence Herbicidal Action Against Harmful Plants Seeds of monocotyledonous and dicotyledonous weed plants and crop plants are laid out in sandy loam soil in wood-fiber pots and covered with soil. The compounds of the invention, formulated in the form of wettable powders (WP) or as emulsion concentrates (EC), are then applied to the surface of the covering soil in the form of an aqueous suspension or emulsion at a water application rate equating to 600 to 800 l/ha, with addition of 0.2% wetting agent. After the treatment, the pots are placed in a greenhouse and kept under good growth conditions for the trial plants. The damage to the test plants is scored visually after a test period of 3 weeks by comparison with untreated controls (herbicidal activity in percent (%): 100% activity=the plants have died, 0% activity=like control plants). […] The tables below illustrate, in an exemplary manner, the […] herbicidal action of the compounds according to the invention, the herbicidal activity being stated in percent. [table] In the experiments that follow, herbicidal action of numerous inventive compounds and the known compounds that are structurally closest from D1 (WO 2012/028579 A1) and D2 (WO 2018/202535 A1) were compared under the above-specified conditions by the pre-emergence and post-emergence method. The example numbers given in the tables relate to the compounds disclosed in the respective documents. In addition to the compounds disclosed in D1 and D2, the following compounds V-1 to V-14 that are encompassed by D1 or D2 but are not compounds specified therein were used in the comparative experiments: • V-1: 2-(methylsulfanyl)-3-(methylsulfinyl)-N-(1-methyl-1H-tetrazol-5-yl)-4-(trifluoromethyl)benzamide • V-2: 2-(methylsulfanyl)-3-(methylsulfonyl)-N-(1-methyl-1H-tetrazol-5-yl)-4-(trifluoromethyl)benzamide • V-3: 2,3-bis(ethylsulfanyl)-N-(1-methyl-1H-tetrazol-5-yl)-4-(trifluoromethyl)benzamide • V-4: 2-chloro-3-(ethylsulfanyl)-N-(1-methyl-1H-tetrazol-5-yl)-4-(trifluoromethyl)benzamide • V-5: 2-chloro-4-iodo-3-(methylsulfanyl)-N-(1-methyl-1H-tetrazol-5-yl)benzamide • V-6: 2-chloro-4-iodo-3-(methylsulfinyl)-N-(1-methyl-1H-tetrazol-5-yl)benzamide • V-7: 2-chloro-4-iodo-3-(methylsulfonyl)-N-(1-methyl-1H-tetrazol-5-yl)benzamide • V-8: 2-bromo-3-(methylsulfanyl)-N-(1-methyl-1H-tetrazol-5-yl)-4-(trifluoromethyl)benzamide • V-9: 2-bromo-3-(methylsulfinyl)-N-(1-methyl-1H-tetrazol-5-yl)-4-(trifluoromethyl)benzamide • V-10: 2-bromo-3-(methylsulfonyl)-N-(1-methyl-1H-tetrazol-5-yl)-4-(trifluoromethyl)benzamide • V-11: 2-bromo-3-(ethylsulfanyl)-N-(1-methyl-1H-tetrazol-5-yl)-4-(trifluoromethyl)benzamide • V-12: 2-bromo-3-(ethylsulfinyl)-N-(1-methyl-1H-tetrazol-5-yl)-4-(trifluoromethyl)benzamide • V-13: 2-bromo-3-(ethylsulfonyl)-N-(1-methyl-1-1H-tetrazol-5-yl)-4-(trifluoromethyl)benzamide • V-14: 2-cyclopropyl-3-(ethylsulfanyl)-N-(1-methyl-1H-tetrazol-5-yl)-4-(trifluoromethyl)benzamide Herbicidal Pre-Emergence Action: […]

SMILES | herbicidal activity LOLRI [%]
CCn1nnnc1NC(=O)c1ccc(C(F)(F)F)c(CSCCOC)c1Cl [Example 2-305] | 100
CCCn1nnnc1NC(=O)c1ccc(C(F)(F)F)c(CSCC2CC2)c1Cl [Example 3-314] | 90
Cn1nnnc1NC(=O)c1ccc(C(F)(F)F)c(CS(=O)(=O)C2CC2)c1Cl [Example 1-304] | 100
